# Biological target: T1, sodium ion channel of Trpm5 bitter receptor (Mus musculus, UniProt Q9JJH7)
# T1 construct: Put the removed tongue in a 2 ml EP tube, add 1-1.5 ml of 0.25% trypsin solution; from tissue; host or cells: cells dissociated with trypsin from mouse tongue
# T1 sequence (Q9JJH7 1-1158): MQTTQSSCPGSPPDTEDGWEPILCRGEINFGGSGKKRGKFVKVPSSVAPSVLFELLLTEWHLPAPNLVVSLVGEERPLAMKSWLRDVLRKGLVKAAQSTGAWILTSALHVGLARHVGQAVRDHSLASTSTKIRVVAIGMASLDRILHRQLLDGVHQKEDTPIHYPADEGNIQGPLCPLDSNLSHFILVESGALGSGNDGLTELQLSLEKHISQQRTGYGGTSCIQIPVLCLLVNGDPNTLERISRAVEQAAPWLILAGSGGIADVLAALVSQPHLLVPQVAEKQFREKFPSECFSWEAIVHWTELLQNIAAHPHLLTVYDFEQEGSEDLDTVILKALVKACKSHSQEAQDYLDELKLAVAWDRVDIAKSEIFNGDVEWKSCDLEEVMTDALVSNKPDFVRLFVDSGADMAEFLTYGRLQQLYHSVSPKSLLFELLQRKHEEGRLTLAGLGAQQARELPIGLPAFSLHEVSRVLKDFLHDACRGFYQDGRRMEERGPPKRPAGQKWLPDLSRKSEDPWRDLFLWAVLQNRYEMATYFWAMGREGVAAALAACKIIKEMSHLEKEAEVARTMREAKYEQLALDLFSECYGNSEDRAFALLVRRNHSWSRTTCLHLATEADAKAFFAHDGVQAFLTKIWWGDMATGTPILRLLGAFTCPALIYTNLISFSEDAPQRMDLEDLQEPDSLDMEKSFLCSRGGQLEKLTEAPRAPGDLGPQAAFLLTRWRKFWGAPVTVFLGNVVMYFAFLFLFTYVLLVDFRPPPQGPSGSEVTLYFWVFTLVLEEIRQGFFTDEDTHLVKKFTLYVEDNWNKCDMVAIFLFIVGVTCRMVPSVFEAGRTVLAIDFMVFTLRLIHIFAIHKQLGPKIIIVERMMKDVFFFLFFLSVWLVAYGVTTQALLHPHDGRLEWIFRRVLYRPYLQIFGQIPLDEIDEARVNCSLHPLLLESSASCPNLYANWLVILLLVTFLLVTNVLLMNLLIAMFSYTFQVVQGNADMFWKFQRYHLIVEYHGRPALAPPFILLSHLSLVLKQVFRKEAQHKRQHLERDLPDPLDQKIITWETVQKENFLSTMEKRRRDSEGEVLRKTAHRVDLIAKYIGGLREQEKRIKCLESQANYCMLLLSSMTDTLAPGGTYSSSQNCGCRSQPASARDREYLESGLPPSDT
# Experiment: Immunofluorescence experiment of sodium ion channels in mouse tongue cells stimulated with bitter agent
# Type: cell-based, mice
# Settings: for blocking effect on the sodium ion channel (result analysis in words): judged from change of sodium ion fluorescence after bitter drug
# Experimental: The mouse was killed by dislocation, and the tongue was removed (minimizing tongue bleeding), disinfected with alcohol for 2 minutes (adding sodium citrate for anticoagulation), and washed with D-Hanks solution or rinsed with 10 ml of saline solution drawn by a syringe.
# Take out the centrifuge tube from the constant temperature incubator, shake for 2 minutes, blow the undigested tongue several times with the gun tip, take out the tongue, cover it with the EP tube cap, put it in a centrifuge, centrifuge at 3000 rpm for 3 minutes, discard the supernatant, add cell culture medium (containing 10% inactivated serum), blow and disperse the cells, and place it in a 37° C. constant temperature incubator for 30 min to allow the cells to recover.
# (1) Take out the prepared ENG-2 AM storage solution and warm it to room temperature for use, keeping it away from light. The concentration of the pre-prepared stock solution is 2 mM and it is stored at −18° C. for future use.
# (2) Dilute the ENG-2 AM+DMSO stock solution to a […] working solution using serum-free culture medium.
# (3) Load the probe in a serum-free culture medium containing an appropriate concentration of AM probe.
# Take out the cells from the incubator, centrifuge, and discard the culture medium. Wash the cells once with D-Hanks solution, centrifuge, and discard the culture medium. Add 1 ml of culture medium again, then add 300 ul of sodium ion probe dilution solution, blow and disperse the cells, and incubate the cells at room temperature or 37° C. for 1 hour.
# At the end of incubation, centrifuge at 100 rpm for 2 minutes, discard the supernatant, add 500 ul of cell culture medium without AM probe, blow and disperse the cells, and incubate for 20-60 min to ensure that the cells completely deesterify the AM group.
# (4) Take 10 ul of incubation solution and drop it into the center of the cell counting plate, cover it with a slide, and observe it under a fluorescence microscope.
# (5) Use a low-power microscope to find the cells, open the fluorescence path, detect the fluorescence signal with a fluorescence microscope, change to a high-power microscope, find the appropriate observation cells, observe and take pictures to record the initial signal.
# (2) Experimental drugs: Add 5 ul of the tested drug to one side of the cover glass on the cell counting plate, use absorbent paper to absorb water on the opposite side, let the solution soak the cells, and then use a fluorescence microscope to observe and take 3-5 photos, one every 1-2 minutes; then add 5 ul of the standard bitter drug to one side of the cover glass on the cell counting plate, use absorbent paper to absorb water on the opposite side, let the solution soak the cells, and then use a fluorescence microscope to observe and take 3-5 photos, one every 1-2 minutes.
# (5) Data analysis: Use Image J-Fiji software to analyze the images, compare the average values of the fluorescence pixels, remove the base number and compare them in the table, draw FIGS. 4-6, and use SPSS18.0 to perform chi-square tests to compare the differences between the data groups.
# [1] = Bitterant 60 s (2% metronidazole solution)
# [2] = Bitterant 120 s (2% metronidazole solution)
# [3] = Bitterant 180 s (2% metronidazole solution)
# [4] = Initial (before addition of drug), sodium ion dye ENG-2 AM
# [5] = Bitterant 240 s (2% metronidazole solution)
SMILES,average value of fluorescence brightness (Addition of drugs),"average value of fluorescence brightness, base number removed (Addition of drugs)",average value of fluorescence brightness [1],"average value of fluorescence brightness, base number removed [1]",average value of fluorescence brightness [2],"average value of fluorescence brightness, base number removed [2]",average value of fluorescence brightness [3],"average value of fluorescence brightness, base number removed [3]","average value of fluorescence brightness, base number removed (Initial)",average value of fluorescence brightness [4],average value of fluorescence brightness [5],"average value of fluorescence brightness, base number removed [5]",blocking effect on the sodium ion channel (result analysis in words)
"O=CC=Cc1ccccc1 [Cinnamaldehyde, 3-phenyl-2-propenal]",31.017,−0.328,30.893,−0.452,30.691,−0.654,30.597,−0.748,0,31.345,–,–,can block the sodium ion channel of Trpm5 bitter receptor
"CC(C)=CCCC(C)=CC=O [Citral, citral]",29.943,−0.335,29.766,−0.512,29.742,−0.536,29.647,−0.631,0,30.278,–,–,can block the sodium ion channel of Trpm5 bitter receptor
"C=CC(C)(O)CCC=C(C)C (stereo not shown) [Linalool, linalool]",27.648,−0.135,27.649,–,27.44,−0.343,27.426,−0.357,0,27.783,26.46,−1.323,can block the sodium ion channel of Trpm5 bitter receptor
"CC1CCC(C(C)C)C(=O)C1 (stereo not shown) [Menthone, 5-methyl-2-isopropylcyclohexanone]",25.48,−0.076,25.415,−0.141,25.447,−0.109,25.4,−0.156,0,25.556,–,–,can block the sodium ion channel of Trpm5 bitter receptor
"COc1ccc(CCN(C)CCCC(C#N)(c2ccc(OC)c(OC)c2)C(C)C)cc1OC (stereo not shown) [Verapamil, 5-((3,4-dimethoxyphenylethyl)methylamino)-2-(3,4-dimethoxyphenyl)-2-isopropylvaleronitrile, reference compound]",27.77,−0.085,28.089,0.234,27.651,−0.204,27.574,−0.281,0,27.855,–,–,have poor effects and do not have bitterness masking effect

# Second part, led by results:
average value of fluorescence brightness (Addition of drugs),"average value of fluorescence brightness, base number removed (Addition of drugs)",average value of fluorescence brightness [1],"average value of fluorescence brightness, base number removed [1]",average value of fluorescence brightness [2],"average value of fluorescence brightness, base number removed [2]",average value of fluorescence brightness [3],"average value of fluorescence brightness, base number removed [3]","average value of fluorescence brightness, base number removed (Initial)",average value of fluorescence brightness [4],average value of fluorescence brightness [5],"average value of fluorescence brightness, base number removed [5]",SMILES,blocking effect on the sodium ion channel (result analysis in words)
28.103,−0.125,27.797,−0.431,26.368,−1.86,26.329,−1.899,0,28.228,–,–,C=CCc1ccc(OC(C)=O)c(OC)c1 [Eugenol acetate],can block the sodium ion channel of Trpm5 bitter receptor
25.244,−0.093,25.15,−0.187,25.137,−0.2,25.08,−0.257,0,25.337,–,–,"CCCCC[C@H](O)CC(=O)CCc1ccc(O)c(OC)c1 [Gingerol, 6-gingerol]",can block the sodium ion channel of Trpm5 bitter receptor
28.92,0.041,28.747,−0.132,28.8,−0.079,28.851,−0.028,0,28.879,–,–,CC(C)[C@@H]1CC[C@@H](C)C[C@H]1OC(=O)CCC(=O)O [Menthyl succinate],can block the sodium ion channel of Trpm5 bitter receptor
26.795,−0.107,26.689,−0.213,26.699,−0.203,26.725,−0.177,0,26.902,–,–,"COc1cc(C(=O)O)ccc1O [Vanillic acid, 3-methoxy-4-hydroxybenzoic acid]",have poor effects and do not have bitterness masking effect
